Measured values published in US11083723B2, “Use of roluperidone to treat negative symptoms and disorders, increase neuroplasticity, and promote neuroprotection” (Minerva Neurosciences, Inc., priority 2018, dated 2021).
Where a name gives a salt, the structure may show the parent alone.

Assays:
[1] = target: alpha1-adrenergic receptors; assay: Molecular binding profile, alpha1-adrenergic
dopaminergic receptors = assay: Receptor affinity, dopaminergic; format: binding
[2] = system: BDNF release by primary rat astrocytes; assay: BDNF release by primary rat astrocytes, in situ ELISA; format: cell-based; settings: 5 days incubation
Description: At confluency, astrocytes were plated in 96-well Nunc MaxiSorp surface polystyrene flat-bottom immunoplate precoated with poly-D-lysine during 30 min. and an anti-BDNF monoclonal antibody overnight at 4° C. at a density of 30,000 cells/well. […] At the end of drug treatment, cells were carefully washed with TBST (20 mM Tris-HCl (pH 7.6), 150 mM NaCl, and 0.05% (vol/vol) Tween 20). The plate was then incubated with the polyclonal anti-human BDNF antibody overnight and BDNF quantified. Experimental Protocol-In Situ ELISA on Primary Astrocytes Rat Primary Culture of Astrocytes Rat mixed glial cells were cultured as described by McCarthy et al. Primary rat glial cells were prepared from the cortical of newborn Wistar rats (1 day). […] Medium was changed 3 times per week. At confluency, astrocytes were plated in 96-well Nunc MaxiSorp surface polystyrene flat-bottom immunoplate precoated with poly-D-lysine during 30 min (Sigma, Ref: […], batch: SLBS8705) and an anti-BDNF monoclonal antibody overnight at 4° C. at a density of 30,000 cells/well. (Balkowiec and Katz “Cellular Mechanisms Regulating Activity-Dependent Release of Native Brain-Derived Neurotrophic Factor from Hippocampal Neurons” J. […] At the end of drug treatment, cells were carefully washed with TBST (20 mM Tris-HCl (pH 7.6), 150 mM NaCl, and 0.05% (vol/vol) Tween 20). The plate was then incubated with the polyclonal anti-human BDNF antibody overnight. The amount of specifically bound polyclonal antibody, which when exposed to chromogenic substrate (TMB reagent; Promega), changes color in proportion to the amount of BDNF present in the sample. The color intensity was quantified by measuring the absorbance at 450 nm. BDNF standards, ranging in concentration from 0 to 500 pg/mL were added in parallel wells in the same medium than hippocampal neurons.

sigma2 receptors = sigma2 receptors (Homo sapiens, UniProt Q5BJF2); assay: Molecular binding profile, sigma2
Sequence of sigma2 receptors (Q5BJF2 whole entry): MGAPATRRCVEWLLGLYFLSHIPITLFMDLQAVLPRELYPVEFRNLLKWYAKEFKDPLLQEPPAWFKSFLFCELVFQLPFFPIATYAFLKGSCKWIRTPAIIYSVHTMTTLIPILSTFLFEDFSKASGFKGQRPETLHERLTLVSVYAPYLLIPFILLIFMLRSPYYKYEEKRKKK

[3] = system: GDNF release by primary rat astrocytes; assay: GDNF release by primary rat astrocytes, in situ ELISA; format: cell-based; settings: 5 days incubation
Description: Experimental Protocol-In Situ ELISA on Primary Astrocytes Rat Primary Culture of Astrocytes Rat mixed glial cells were cultured as described by McCarthy et al. Primary rat glial cells were prepared from the cortical of newborn Wistar rats (1 day). Briefly, meninges and blood vessels of the mice cortex were removed and placed in ice-cold medium of Leibovitz (L15; PanBiotech, ref P04-27055, batch 4511117) containing 2% Penicillin-Streptomycin (PS; PanBiotech, ref P06-07100, batch 2110917) and 1% of bovine serum albumin (BSA; […] Cells were then submitted to a supplementary incubation of 15 min. at 37° C. in presence of deoxyribonuclease I (0.1 mg/mL Panbiotech, ref: P60-37780100, batch: H140508). Cells were then pelleted (5 min. at 1200 rpm) and trypsinization was stopped by adding DMEM (PanBiotech, Ref P04-03600, Batch 8420517) supplemented with 10% FCS (Fischer, Ref 10270106, batch 41A0940K), 1 mM of Na/pyruvate (PanBiotech, ref: P04-43100, batch 3470914). Cells suspension was mechanically dissociated and filtered through […] diameter nylon meshes (BD Falcon, Ref: 352340). The cells were collected by centrifugation at 1200 rpm/min for 10 min, resuspended in culture medium and then plated in culture flasks (Dutscher, ref: 690175). Cells were seeded at a density of 1.25×10^5 cells/cm^2 and culture in 5% CO2 at 37° C. Medium was changed 3 times per week. At confluency, astrocytes were plated in 96-well Nunc MaxiSorp surface polystyrene flat-bottom immunoplate precoated with poly-D-lysine during 30 min (Sigma, Ref: […], batch: SLBS8705) and an anti-GDNF monoclonal antibody overnight at 4° C. at a density of 30,000 cells/well. […] At the end of drug treatment, cells were carefully washed with TBST (20 mM Tris-HCl (pH 7.6), 150 mM NaCl, and 0.05% (vol/vol) Tween 20). The plate was then incubated with the polyclonal anti-human GDNF antibody overnight. The amount of specifically bound polyclonal antibody, which when exposed to chromogenic substrate (TMB reagent; Promega), changes color in proportion to the amount of GDNF present in the sample. The color intensity was quantified by measuring the absorbance at 450 nm. GDNF standards, ranging in concentration from 0 to 500 pg/mL were added in parallel wells in the same medium than hippocampal neurons.

sigma1 receptors = sigma1 receptors (Homo sapiens, UniProt Q99720); assay: Molecular binding profile, sigma1
Sequence of sigma1 receptors (Q99720 whole entry): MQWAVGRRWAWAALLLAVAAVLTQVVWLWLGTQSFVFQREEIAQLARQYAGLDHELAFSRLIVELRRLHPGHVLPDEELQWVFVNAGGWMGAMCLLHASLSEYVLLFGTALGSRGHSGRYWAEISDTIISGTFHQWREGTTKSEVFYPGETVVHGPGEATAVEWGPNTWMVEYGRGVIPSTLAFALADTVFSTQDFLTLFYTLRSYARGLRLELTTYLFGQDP

## O=C(CN1CCC(CN2Cc3ccccc3C2=O)CC1)c1ccc(F)cc1 [Compound (I), 1H-Isoindol-1-one, 2-[[1-[2-(4-Fluorophenyl)-2-oxoethyl]-4-piperidinyl]methyl]-2,3-dihydro-, hydrochloride, hydrate (1:1:2)]
[1]
  Ki: 14.4 nM
Dopaminergic receptors
  affinity for dopaminergic receptors: no affinity
[2]; 3 nM
  BDNF release astrocytes, % increase of control conditions: 6.8%
[2]; 10 nM
  BDNF release astrocytes, % increase of control conditions: 16.2%
[2]; 30 nM
  BDNF release astrocytes, % increase of control conditions: 17.1%
[2]; 100 nM
  BDNF release astrocytes, % increase of control conditions: 18.9%
[2]; 300 nM
  BDNF release astrocytes, % increase of control conditions: 29.5%
[2]; 1 μM
  BDNF release astrocytes, % increase of control conditions: 16.9%
sigma2 receptors
  Ki: 8.2 nM
sigma2 receptors; sigma2 versus sigma1
  selectivity sigma2 versus sigma1 receptors: 30 fold
[3]; 3 nM
  GDNF release astrocytes, % increase of control conditions: 11.4%
[3]; 10 nM
  GDNF release astrocytes, % increase of control conditions: 13.8%
[3]; 30 nM
  GDNF release astrocytes, % increase of control conditions: 14.2%
[3]; 100 nM
  GDNF release astrocytes, % increase of control conditions: 14.8%
[3]; 300 nM
  GDNF release astrocytes, % increase of control conditions: 20.8%
[3]; 1 μM
  GDNF release astrocytes, % increase of control conditions: 17.5%
sigma1 receptors
  Ki: 254 nM
